Source: patent EP3262036B1, “THERAPEUTIC PYRIDAZINE COMPOUNDS AND USES THEREOF” (priority 2015, dated 2016)
pIC50: −log10 of the molar value.

Assays:
Test in all cases: biochemical
[1] = molecular target: BRM (Isoform 2) Bromodomain (Homo sapiens, UniProt P51531)
Source text: IC50 measurements for inhibitors using BRM SM TR-FRET Binding Assay

[2] = molecular target: BRG1 (Homo sapiens, UniProt P51532); type: binding; conditions: BRG1 HTRF IC50 (µM)
Source text: IC50 measurements for inhibitors using BRG1 TR-FRET Binding Assay

[3] = molecular target: Polybromodomain-1 BromoDomain-5 (PB1-BD5) (Homo sapiens, UniProt Q86U86)
Chain of Polybromodomain-1 BromoDomain-5 (PB1-BD5) (Q86U86 645-766): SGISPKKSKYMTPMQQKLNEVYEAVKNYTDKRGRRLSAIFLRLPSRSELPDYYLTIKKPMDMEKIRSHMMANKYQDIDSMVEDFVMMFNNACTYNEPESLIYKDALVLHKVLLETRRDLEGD
Source text: IC50 measurements for inhibitors using Polybromodomain-1 BromoDomain-5 (PB1-BD5) SM TR-FRET Binding Assay

Chain of BRM (Isoform 2) Bromodomain (P51531 1377-1486 isoform P51531-2): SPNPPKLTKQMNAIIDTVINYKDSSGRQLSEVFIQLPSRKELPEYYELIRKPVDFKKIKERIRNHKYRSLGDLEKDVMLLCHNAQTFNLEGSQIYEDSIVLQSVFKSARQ
Chain of BRG1 (P51532 1448-1575): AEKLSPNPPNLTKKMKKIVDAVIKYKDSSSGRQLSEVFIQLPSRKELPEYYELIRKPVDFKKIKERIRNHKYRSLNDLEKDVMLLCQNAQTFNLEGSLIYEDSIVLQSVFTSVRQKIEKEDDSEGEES

## CC1CN(c2cc(-c3ccccc3O)nnc2N)CCN1C(=O)C(C)(C)C (stereo not drawn) [Example 129, 1-(4-(3-amino-6-(2-hydroxyphenyl)pyridazin-4-yl)-2-methylpiperazin-1-yl)-2,2-dimethylpropan-1-one]
[1]
  pIC50: 7.74
[2]
  IC50: 0.0104 µM
[3]
  pIC50: 8.17

## CNc1ccc(-c2ccccc2O)nn1 [Example 204, 2-(6-(methylamino)pyridazin-3-yl)phenol]
[1]
  pIC50: 5.98
[2]
  IC50: 0.893 µM
[3]
  pIC50: 6.46
